Assay results as given in patent US5415869A, “Taxol formulation” (The Research Foundation of State University of New York, priority 1993, dated 1995).
Read-outs that look alike come from different tables or passages of the source.

Assays:
[1] = system: advanced and refractory ovarian cancer; details: phase II, heavily-pretreated patients; cited from earlier work
tumor cell lines = assay: Cytostatic activity in vitro, variety of tumor cell lines; assay type: cell-based; details: across tumor cell lines
Description: (§1) FIG. 7 is a plot of cell lines versus IC50 which compares the growth-inhibitory properties of taxol/liposomes to those of free taxol. Cells were placed at a density of 2×10^4 /ml in multiwell plates and allowed to adhere overnight. Triplicate wells were exposed to various concentration of taxol, either added as liposomes (solid bar), as a 100× concentrated stock in DMSO (stippled bar), or absorbed to serum proteins (hatched bar) in the absence of organic solvent. […] Experiments were repeated at least twice. Cell lines are as follows: Colon-26: murine colon carcinoma; B16: murine melanoma; B16F10: highly-metastatic variant of B16 murine melanoma; L1210: murine leukemia; 9L: rat gliosarcoma; A12la, Hcy-lb, and A90: human ovarian tumor cell lines.

[2] = system: Colon-26 (C-26), a murine colon tumor model; assay: Antitumor activity in nine doses, s.c. Colon-26
Description: FIGS. 3A-C show plots of mean tumor size versus days after tumor implantation which indicates the antitumor effect of nine doses of free- or liposomal taxol on Colon-26 tumors. Subcutaneous Colon-26 tumors were initiated. When the tumor was measurable (day 8), treatment was initiated. Animals were dosed 3 times weekly, and treatment was given for 3 weeks, as indicated by the filled circle along the abscissa. Untreated controls received injections of saline or Diluent 12 (diluted 1:3) without taxol (panel A). Treatment with liposome-based taxol formulations consisted of 10, 40, or 60 mg/kg doses with taxol, PG, and PC SUV (B). Alternatively, free taxol in Diluent 12 (diluted 1:3 with saline), was administered at doses of 10, 20, or 30 mg/kg (C). […] Each treatment group consisted of ten animals. For humane reasons, animals were sacrificed when tumor volume exceeded 2000 mm^3.
In all experiments, the tumor volume of each animal was measured frequently, and the data was subjected to statistical analysis using an BMDP 1L program. The median time required for the tumor to reach 1500 mm^3 was determined for each treatment group (as indicated by the insert).
The viability of cells was >80% by trypan blue exclusion.
Subcutaneous tumors on the left flank were initiated by injection of 10^6 viable cells in a volume of 0.1 ml. Mice were then randomized into various treatment groups and numbered. The dose per mouse was adjusted on the basis of its weight, determined at the time of treatment. Treatment was started 7 or 8 days after tumor implantation, and consisted of i.v. injections through the tail vein. Buffer or Diluent 12 without taxol were used as control treatments. Animal weight and tumor volume was measured five times weekly until the tumor volume reached 2000 mm^3, at which time animals were sacrificed for humane reasons. Tumor volume was determined by measuring three orthogonal diameters of the tumor, and was calculated as 1/2 of the product of the diameters (Begg, A. C., "Principles and Practices of the Tumor Growth Delay Assay," Rodent Tumor (R. F. Kallman (ed.)), pp. 114-121, New York:Pergammon Press, (1987), which is hereby incorporated by reference). The data was analyzed for statistical significance using the BMDP 1L program (BMDP Statistical Software Inc.; Los Angeles, Calif.).

[3] = Maximum Tolerated Dose / toxicity in healthy mice; assay type: in vivo; details: mouse, in vivo, iv
Description: (§2) The Maximum Tolerated Dose ("MTD") for taxol-liposome formulations administered via the intravenous route was determined in healthy BALB/c female mice. Survey experiments to define the MTD were performed with two animals per group. Doses were escalated in 2-fold increments, starting at 5 mg/kg. Drug effects were determined by close observation of weight changes and survival. The highest non-lethal dose of taxol causing >10% weight loss within one week of cessation of dosing was defined as the MTD. Animals showing weight loss exceeding 20% were sacrificed, as changes of this magnitude often indicate lethal toxicity (E. Mayhew, unpublished observations). After completing the survey experiments, the approximate MTD was refined further using 3 groups of 8 mice.

[4] = system: healthy BALB/c female mice; assay: Maximum Tolerated Dose / toxicity in healthy mice; assay type: in vivo; details: i.v., single dose
Description: as §2

human tumor lines = assay: Cytostatic activity in vitro, human tumor lines; assay type: cell-based; details: human tumor lines more sensitive than C-26
Description: as §1

[5] = system: Colon-26 (C-26), a murine colon tumor model; assay: Antitumor activity in one dose, s.c. Colon-26; assay type: in vivo, BALB/c mice
Description: Subcutaneous Colon-26 tumors were initiated and checked daily. When the tumor was measurable (day 8), a single intravenous bolus dose of taxol was given, either in Cremophor EL®/ethanol (Diluent 12) or in liposomes (indicated by the filled circle along the abscissa). Untreated controls received injections of equivalent volumes of saline or Diluent 12 (diluted 1:3) without taxol (panel A). […]
(§3) In all experiments, the tumor volume of each animal was measured frequently, and the data was subjected to statistical analysis using an BMDP 1L program. The median time required for the tumor to reach 1500 mm^3 was determined for each treatment group (as indicated by the insert). […]
Subcutaneous tumors on the left flank were initiated by injection of 10^6 viable cells in a volume of 0.1 ml. […] The dose per mouse was adjusted on the basis of its weight, determined at the time of treatment. […] Animal weight and tumor volume was measured five times weekly until the tumor volume reached 2000 mm^3, at which time animals were sacrificed for humane reasons.

A90 human ovarian tumor = assay: Cytostatic activity in vitro, A90; assay type: cell-based; details: 0.1% DMSO vs drug dissolved directly in serum-containing growth medium
Description: as §1

[6] = system: A121a, a human ovarian tumor line; assay: Cytostatic activity in vitro, A121a; assay type: cell-based; details: 72 hr
Description: as §1

metastatic breast cancer = details: phase II, pretreated patients; cited from earlier work
[7] = system: C-26, a murine colon tumor line; assay: Cytostatic activity in vitro, C-26; assay type: cell-based
Description: as §1

9L rate gliosarcoma = assay: Cytostatic activity in vitro, 9L; assay type: cell-based, rat; details: 0.1% DMSO vs drug dissolved directly in serum-containing growth medium
Description: as §1

[8] = system: Colon-26 (C-26), a murine colon tumor model; assay: Antitumor activity in four doses, s.c. Colon-26; assay type: in vivo, BALB/c mice; details: 4 i.v. doses
Description: Subcutaneous Colon-26 tumors were initiated. When the tumor was measurable (day 7), intravenous treatment was initiated and was repeated on days 8, 12, and 13 (as indicated by the filled circles along the abscissa). Untreated controls received injections of saline or Diluent 12 (diluted 1:3) without taxol (panel A). Treatment with liposome-based taxol formulations consisted of 20, 30, or 40 mg/kg doses of the following: taxol, and, PG, and PC multilamellar vesicles ("MLV") (B), taxol, PG, and PC SUV (C), or taxol, PEG-DPPE, and PC SUV (D). Alternatively, free taxol in Diluent 12 (diluted 1:3 with saline), was administered at doses of 10, 20, or 30 mg/kg (E). […] For humane reasons, animals were sacrificed when tumor volume exceeded 2000mm^3.
as §3
Subcutaneous tumors on the left flank were initiated by injection of 10^6 viable cells in a volume of 0.1 ml. […] The dose per mouse was adjusted on the basis of its weight, determined at the time of treatment. […] Animal weight and tumor volume was measured five times weekly until the tumor volume reached 2000 mm^3, at which time animals were sacrificed for humane reasons. […]

[9] = free taxol 20 mg/kg (cumulative 180 mg/kg)

For `CC(=O)O[C@H]1C(=O)[C@@]2(C)[C@H]([C@H](OC(=O)c3ccccc3)[C@]3(O)C[C@H](OC(=O)[C@H](O)[C@@H](NC(=O)c4ccccc4)c4ccccc4)C(C)=C1C3(C)C)[C@]1(OC(C)=O)CO[C@@H]1C[C@@H]2O` [taxol], the response rate [1] is listed as 30%, the “variation of sensitivity to free taxol” value (tumor cell lines) is listed as about 100 fold and the “effect on tumor progression” value ([2]; 9 doses, any dose (10, 20, 30 mg/kg per injection)) is listed as “gave no delay in tumor progression at any dose”. The “tumor growth delay, statistical significance (BMDP 1L)” value ([2]; 9 doses, time to reach 1500 mm^3) was “No dose of free taxol, up to and including lethal concentrations, had a significant effect on tumor progression”, the “effect on tumor progression” value [2, 9] was “no effect was observed on tumor progression” and the survival [2, 9] was “most animals survived”. For the same compound, the “tolerability of individual injections” value ([2]; free taxol 30 mg/kg) was “tolerated as individual injections”, the lethality ([2]; free taxol 30 mg/kg per injection) was “cumulatively lethal to all animals by day 21” and the MTD ([3]; owing to the toxicity of Diluent 12, read-out: dose of free taxol that could be given as a single injection) was under 35 mg/kg. The MTD ([3]; single dose, read-out: MTD, single dose) was about 30 mg/kg, the “MTD, single dose” value [4] was 30 mg/kg and the “sensitivity to taxol relative to C-26” value (human tumor lines) was “at least 10 fold”. The “effect on tumor growth” value ([5]; single i.v. dose on day 8, free taxol 15, 25, 30 mg/kg, liposomes 25, 35, 45 mg/kg, vs controls) was “showed no effect on tumor growth”, the “tumor growth delay, statistical significance (BMDP 1L)” value ([5]; single i.v. dose, time to reach 1500 mm^3) was “no significant delay in tumor growth compared to vehicle or buffer controls (p.0.05)” and the “enhancement of free taxol activity by DMSO” value (A90 human ovarian tumor) was “approximately 8 fold”. For the same compound, the IC50 [6] was 1.5 ± 0.7 µM, the overall response rate (metastatic breast cancer) was 56% and the “effect of DMSO on cytostatic activity” value ([7]; C-26) was “not affected by DMSO”. For the same compound, the IC50 ([7]; Mus musculus, C-26, 72 hr) was 90 ± 10 µM, the “enhancement of free taxol activity by DMSO” value (9L rate gliosarcoma) was “approximately 8 fold” and the “effect on tumor growth” value ([8]; days 7, 8, 12, 13, free taxol 10, 20, 30, liposomes 20, 30, 40 mg/kg per injection) was “showed no effect on tumor progression”. The “tumor growth delay, statistical significance (BMDP 1L)” value ([8]; vs buffer or vehicle controls) was “no significant delay in tumor growth at the dose levels tested, compared to buffer or vehicle controls (p>0.05)”.
